Data from US20070191373A1, “Heterocyclic compounds for use in the treatment of viral infections” (priority 2003, published 2007).
Read-outs that look alike come from different tables or passages of the source.

How the values were obtained:
[1] = system: CMV strain AD169; assay: CMV strain AD169 induced cytopathicity in HEL cells; assay type: cell-based, cytomegalovirus (CMV); details: Human betaherpesvirus 5, AD169, 168 h, vs untreated control
Experimental: (§1) Products where X═Y═N, Z=Q=O, U═V═CH and R^1, R^4 and R^8 are as given in Tables 1 and 2 below embodying the present invention were tested in vitro in tissue cultures for toxicity and for potent antiviral actions with respect to cytomegalovirus (CMV).
EC50/μm CMV-AD169 is the drug concentration in μM required to reduce by 50% CMV strain AD169 induced cytopathicity in human embryonic lung fibroblast (HEL) cells measured 7 days post infection compared to untreated control.
(§2) Further details of the methodology employed can be found in McGuigan et al. J. Med. Chem., 1999, 42, 4479-4484.

[2] = system: CMV strain Davis; assay: CMV strain Davis induced cytopathicity in HEL cells; assay type: cell-based, cytomegalovirus (CMV); details: Human betaherpesvirus 5, 168 h, vs untreated control
Experimental: as §1
EC50/μM CMV Davis is the drug concentration in μM required to reduce by 50% CMV strain Davis induced cytopathicity in human embryonic lung fibroblast (HEL) cells measured 7 days post infection compared to untreated control.
as §2

[3] = Toxicity in tissue culture, reduction of cell number; assay type: cell-based; details: human, human embryonic lung fibroblast (HEL) cells, concentration reducing cell number by 50%
Experimental: as §1
CC50/μM is the compound concentration required to reduce the cell number by 50%.
as §2

[4] = Preliminary rodent trial, bioavailability and half life after i.p. dosing; assay type: in vivo
[5] = not given; remark: listed apart in the source
[6] = Table 1, 7 days post infection, read-out: EC50/μM 1 CMV Davis
[7] = Table 2, 7 days post infection, read-out: EC50/μM 2 CMV Davis

| EC50 ([1]; Table 1, 7 days post infection) [µM] | EC50 [2, 6] [µM] | EC50 ([1]; Table 2, 7 days post infection) [µM] | EC50 [2, 7] [µM] | Structure (SMILES) | CC50 ([3]; Table 2) [µM] | CC50 ([3]; Table 1) [µM] | further results |
| --- | --- | --- | --- | --- | --- | --- | --- |
| > 50 | > 50 |  |  | CCCCc1cc2cn(C3CCCC3)c(=O)nc2o1 [Cf2158, 6-Butyl-3-cyclopentyl-3H-furo[2,3-d]pyrimidin-2-one] |  |  |  |
|  |  | 8 | 7 | CCCCc1cc2cnc(OC3CCCC3)nc2o1 [Cf2159, 6-Butyl-2-cyclopentyloxy-furo[2,3-d]pyrimidine] | 108 |  | melting point: 69 to 71 °C |
| 5 | 4 |  |  | CCCCCCCc1cc2cn(C3CCCC3)c(=O)nc2o1 [Cf2160] |  | 194 |  |
|  |  | > 5 | 12 | CCCCCCCc1cc2cnc(OC(CC)CC)nc2o1 [Cf2189, 6-Heptyl-2-(1-ethyl-propoxy)-furo[2,3-d]pyrimidine] | 98 |  | melting point: 70 to 71 °C |
| 20 | 50 |  |  | CCCCCCCc1cc2cn(C(CC)CC)c(=O)nc2o1 [Cf2190, 6-Heptyl-3-(1-ethyl-propyl)-3H-furo[2,3-d]pyrimidin-2-one] |  | > 200 |  |
|  |  | > 5 | 16 | CCCCCCCc1cc2cnc(OCCCCC)nc2o1 [Cf2191, 6-Heptyl-2-pentyloxy-furo[2,3-d]pyrimidine] | 1110 |  | melting point: 48 to 49 °C |
| > 200 | > 200 |  |  | CCCCCCCc1cc2cn(CCCCC)c(=O)nc2o1 [Cf2192, 6-Heptyl-3-pentyl-3H-furo[2,3-d]pyrimidin-2-one] |  | > 200 |  |
|  |  | > 20 | > 20 | CCCCc1cc2cnc(OC(CC)CC)nc2o1 [Cf2193, 6-Butyl-2-(1-ethyl-propoxy)-furo[2,3-d]pyrimidine] | 98 |  |  |
| > 50 | > 200 |  |  | CCCCc1cc2cn(C(CC)CC)c(=O)nc2o1 [Cf2194, 6-Butyl-3-(1-ethyl-propyl)-3H-furo[2,3-d]pyrimidin-2-one] |  | > 200 |  |
| > 50 | > 50 |  |  | CCCCCn1cc2cc(CCCC)oc2nc1=O [Cf2195, 6-Butyl-3-pentyl-3H-furo[2,3-d]pyrimidin-2-one] |  | > 200 |  |
| > 20 | > 20 |  |  | CCCCCCCc1cc2cn(C3CCCO3)c(=O)nc2o1 (centres unmarked) [Cf2196, 6-Heptyl-3-(tetrahydro-furan-2-yl)-3H-furo[2,3-d]pyrimidin-2-one] |  | 46 |  |
|  |  | > 200 | > 200 | CCCCCCCCCCc1cc2cnc(OCCCCC)nc2o1 [Cf2247] | > 200 |  |  |
| > 50 | 50 |  |  | CCCCCCCCCCc1cc2cn(C3CCCO3)c(=O)nc2o1 (centres unmarked) [Cf2249, 6-Decyl-3-(tetrahydro-furan-2′-yl)-2,3-dihydrofuro[2,3-d]pyrimidin-2-one] |  | > 200 |  |
|  |  | > 50 | > 50 | CCCCCCCCCCc1cc2cnc(OC3CCCC3)nc2o1 [Cf2250, 2-Cyclopentyloxy-6decyl-2,3-dihydrofuro[2,3-d]pyrimidine] | > 200 |  |  |
|  |  | 16 | 10 | CCCCCCCCCCc1cc2cnc(OC(CC)CC)nc2o1 [Cf2252] | 127 |  |  |
|  |  | 4.4 | 2.9 | CCCCCCCCCCc1cc2cnc(OCC3CCCCC3)nc2o1 [Cf2274, 2-Cyclohexylmethoxy-6-decyl-furo[2,3-d]pyrimidine] | > 200 |  |  |
| > 200 | > 200 |  |  | CCCCCCCCCCc1cc2cn(CC3CCCCC3)c(=O)nc2o1 [Cf2275, 3-Cyclohexylmethyl-6-decyl-3H-furo[2,3-d]pyrimidin-2-one] |  | > 200 |  |
| 20 | 10 |  |  | CCCCCCCCCCc1cc2cn(C3CCOC3)c(=O)nc2o1 (centres unmarked) [Cf2276, 6-Decyl-3-(tetrahydro-furan-3-yl)-3H-furo[2,3-d]pyrimidin-None] |  | 148 |  |

| EC50 ([1]; Table 1, 7 days post infection) [µM] | EC50 [2, 6] [µM] | EC50 ([1]; Table 2, 7 days post infection) [µM] | EC50 [2, 7] [µM] | Structure (SMILES) | CC50 ([3]; Table 2) [µM] | CC50 ([3]; Table 1) [µM] | further results |
| --- | --- | --- | --- | --- | --- | --- | --- |
|  |  | 12 | 16 | CCCCCCCCCCc1cc2cnc(OC3CCCCC3)nc2o1 [Cf2294] | > 200 |  |  |
| 38 | 50 |  |  | CCCCCCCCCCc1cc2cn(C3CCCCC3)c(=O)nc2o1 [Cf2295, 3-Cyclohexyl-6-decyl-2,3-dihydrofuro[2,3-d]pyrimidin-2-one] |  | > 200 |  |
|  |  | 2.5 | 2.1 | CCCCCCCCCCc1cc2cnc(OCCC)nc2o1 [Cf2303, 6-Decyl-2-propoxy-furo[2,3-d]pyrimidine] | 126 |  |  |
| 40 | 8 |  |  | CCCCCCCCCCc1cc2cn(CCC)c(=O)nc2o1 [Cf2304, 6-Decyl-3-propyl-3H-furo[2,3-d]pyrimidin-2-one] |  | > 200 |  |
| > 200 | > 200 |  |  | CCCCCCCCCCc1cc2cn(CCCC)c(=O)nc2o1 [Cf2306, 3-Butyl-6-decyl-3H-furo[2,3-d]pyrimidin-2-one] |  | > 200 |  |
|  |  | 3.3 | 1.1 | CCCCCCCCCCc1cc2cnc(OCc3ccccc3)nc2o1 [Cf2307, 2-Benzyloxy-6-decyl-furo[2,3-d]pyrimidine] | > 200 |  |  |
| > 40 | > 40 |  |  | CCCCCCCCCCc1cc2cn(Cc3ccccc3)c(=O)nc2o1 [Cf2308, 3-Benzyl-6-decyl-3H-furo[2,3-d]pyrimidin-2-one] |  | > 200 |  |
| 0.78 | 0.84 |  |  | CCCCCCCCCCc1cc2cn(CC3CCCO3)c(=O)nc2o1 (centres unmarked) [Cf2309, 6-Decyl-3-(tetrahydro-furan-2-ylmethyl)-3H-furo[2,3-d]pyrimidin-2-one] |  | 49 |  |
|  |  | 10.5 | 3.9 | CCCCCCCCCCc1cc2cnc(OCc3ccc(C)cc3)nc2o1 [Cf2313, 6-Decyl-2-(4-methylbenzyloxy)-3H-furo[2,3-d]pyrimidine] | > 200 |  |  |
| > 40 | > 40 |  |  | CCCCCCCCCCc1cc2cn(Cc3ccc(C)cc3)c(=O)nc2o1 [Cf2314, 6-Decyl-3-(4-methylbenzyl)-3H-furo[2,3-d]pyrimidin-2-one] |  | > 200 |  |
|  |  | 3.3 | 2.9 | CCCCCCCCCCc1cc2cnc(OCc3ccc(OC)cc3)nc2o1 [Cf2315, 6-Decyl-2-(4-methoxybenzyloxy)-3H-furo[2,3-a]pyrimidine] | > 200 |  |  |
| > 200 | > 200 |  |  | CCCCCCCCCCc1cc2cn(Cc3ccc(OC)cc3)c(=O)nc2o1 [Cf2316, 6-Decyl-3-(4-methoxybenzyl)-3H-furo[2,3-d]pyrimidin-2-one] |  | > 200 |  |
| 18 | 20 |  |  | CCCCCCc1cc2cn(C)c(=O)nc2o1 [Cf2344, 6-Hexyl-3-methyl-3H-furo[2,3-d]pyrimidin-2-one] |  |  |  |
|  |  | 8 | 3 | CCCCCCc1cc2cnc(OCCCC)nc2o1 [Cf2346, 2-Butyloxy-6-hexyl-furo[2,3-d]pyrimidine] |  |  |  |
|  |  | > 200 | > 3.6 | CCCCCCc1cc2cnc(OCc3ccccc3)nc2o1 [Cf2348, 2-Benzyloxy-6-hexyl-furo[2,3-d]pyrimidine] |  |  |  |
| > 200 | > 200 |  |  | CCCCCCc1cc2cn(Cc3ccccc3)c(=O)nc2o1 [Cf2349, 3-Benzyl-6-hexyl-3H-furo[2,3-d]pyrimidin-2-one] |  |  |  |
|  |  |  |  | CCCCCOc1ncc2cc(CCCC)oc2n1 [Cf 2327] |  |  | melting point: 51 to 52 °C |

| Structure (SMILES) | EC50 ([1]; Table 1, 7 days post infection) [µM] | EC50 [2, 6] [µM] | EC50 ([1]; Table 2, 7 days post infection) [µM] | EC50 [2, 7] [µM] | CC50 ([3]; Table 2) [µM] | CC50 ([3]; Table 1) [µM] | further results |
| --- | --- | --- | --- | --- | --- | --- | --- |
| CCCCCCCc1cc2cnc(OC3CCCC3)nc2o1 [Cf2161, 6-Heptyl-2-cyclopentyloxy-furo[2,3-d]pyrimidine] |  |  | 3 | 5 | 132 |  | bioavailability [4]: significant; visible in vivo toxicity ([5]; 50 mg/kg/day): no visible in vivo toxicity; histology: toxicity against brain, thymus, liver, lungs, kidney, breast, testi, ovum and spleen tissue ([5]; in vivo): no detectable toxicity |
| CCCCCCCCCCc1cc2cnc(OCCCC)nc2o1 [Cf2305, 2-Butoxy-6decyl-furo[2,3-a]pyrimidine] |  |  | 3.9 | 2.7 | > 200 |  |  |
